{"source": "patent US20230183187A1", "about": "“QUINAZOLINE COMPOUNDS AS INHIBITORS OF PREMATURE TERMINATION CODONS” (CENTRE NATIONAL DE LA RECHERCHE SCIENTIFIQUE, priority 2020, published 2023)", "key": {"HeLa cells": {"tested_on": "HeLa cells", "experiment": "IC50 in HeLa cells", "format": "cell-based", "conditions": "Homo sapiens"}, "nonsense mutation W1268X": {"tested_on": "nonsense mutation W1268X", "experiment": "pAC99 dual reporter readthrough in HeLa cells, W1268X", "format": "cell-based, human", "conditions": "24 hours", "method": "(§1) Different compounds of the invention have been tested for their ability to induce readthrough on the nonsense mutation W1268X or R213X in HeLa cells.\n(§2) To this aim the inventors used the pAC99 dual reporter plasmid. This dual reporter is used to quantify stop-codon readthrough through the measurement of luciferase and beta-galactosidase (internal normalisation) activities. Readthrough levels for nonsense mutations were analysed in the presence or absence of tested molecules. Cells are seeded in a 6-well plate. The next day, cells are transfected with the reporter plasmid using the JetPei reagent (Invitrogen). The following day, they are rinsed with fresh medium, with or without readthrough inducers. Cells were harvested 24 hours later, with trypsin—EDTA (Invitrogen), lysed with Glo lysis buffer (Promega) and beta-galactosidase and luciferase activities were assayed as previously described. Readthrough efficiency was estimated by calculating the ratio of luciferase activity to beta-galactosidase activity obtained with the test construct, with normalisation against an in-frame control construct. At least five independent transfection experiments were performed for each assay."}, "nonsense mutation R213X": {"tested_on": "nonsense mutation R213X", "experiment": "pAC99 dual reporter readthrough in HeLa cells, R213X", "format": "cell-based, human", "conditions": "24 hours", "method": "as §1, §2"}, "[1]": {"tested_on": "p53 (endogenous nonsense mutation R213X) in HDQ-P1 cells", "experiment": "Western blot of full-length p53 in HDQ-P1 cells", "format": "cell-based, human", "conditions": "HDQ-P1, 48 h; for production of the full-length p53 (western blot): TLN68 50 μM, TLN236 30 μM, TLN309 40 μM", "method": "HDQ-P1 cells (R213X) were treated with G418 ([…]), or the selected molecules (TLN68 50 μM, TLN1399 50 μM, TLN236 30 μM and TLN309 40 μM), for 48 h. Cells were harvested by treatment with trypsin—EDTA (Invitrogen), lysed in 350 mM NaCl, 50 mM Tris—HCl pH 7.5, 1% NP-40, and protease inhibitor cocktail (Roche) and disrupted by passage through a syringe.\nTotal proteins were quantified with Bradford reagent (Biorad) and extracts were denatured by incubation in Laemmli buffer for 5 minutes at 90° C. The inventors subjected 30 μg of total protein from HDQ-1 cells to SDS—PAGE in 4/10% Bis—Tris gels. Proteins were transferred onto nitrocellulose membranes, according to the manufacturer's instructions (Biorad). Membranes were saturated by overnight incubation in 5% skimmed milk powder in PBS, and incubated for 1 hour with the primary monoclonal antibody, DO-1 (N-terminal epitope mapping between amino acid residues 11 and 25 of p53; Santa Cruz Biotechnologies, 1/400) or a monoclonal antibody against mouse actin (Millipore, 1/2000). After three washes in PBS supplemented with 0.1% Tween, the membranes were incubated with the secondary antibody [horseradish peroxidase-conjugated anti-mouse IgG ( 1/2500)] for 45 minutes. The membranes were washed five times and chemiluminescence was detected with ECL Prime Western Blotting Detection Reagents (Amersham, GE Healthcare). The signal was quantified with ImageJ software."}, "TP53-R213X mRNA": {"tested_on": "TP53-R213X mRNA", "experiment": "RT-qPCR of mutant p53 mRNA in HDQ-P1 cells", "format": "cell-based, human", "conditions": "HDQ-P1, 48 hours; TLN68 80 μM, TLN309 40 μM; n=3", "method": "For the analysis of mRNA levels for p53 and its transcriptional target genes, Bax, the inventors extracted total RNA from HDQ-P1 cells that had or had not been treated with G418 (400 μM) or TLN68 (80 μM) for 48 hours (RNeasy Mini Kit, Qiagen). The RNA was treated with DNAse I (RNase-free DNase) and quantified with a Nanodrop spectrometer (ThermoScientific). The absence of RNA degradation was confirmed by agarose gel electrophoresis. The first-strand cDNA was synthesized from 2 μg of total RNA, with random primers and the SuperScript II Reverse Transcriptase (Invitrogen), as recommended by the manufacturer. Quantitative PCR was then carried out on equal amounts of the various cDNAs, with a CFX96 thermocycler (Biorad), and the accumulation of products was monitored with the intercalating dye FastStart Universal SYBRGreen Master (ROX) reagent (Roche). The inventors quantified mRNA levels relative to three reference mRNAs: RPL32, Hprt1 and HMBS. In each experiment, results are expressed relative to those for untreated cells, for which the value obtained was set to 1. Relative levels of gene expression were calculated at early stages of PCR, when the amplification was exponential and might, therefore, be correlated with the initial number of copies of the transcript. […] For the quantification of each mRNA, three independent experiments (from biological replicates) were performed in triplicate. […]"}, "[2]": {"tested_on": "TP53 R213X nonsense mutation", "experiment": "Dual reporter (lacZ/F-luc, pAC99) stop codon readthrough quantification, R213X, NIH3T3 cells", "format": "cell-based, mouse", "conditions": "24 h, each drug separately or together", "source_text": "Complementary oligonucleotides corresponding to TP53 R213X nonsense mutations and 9 nucleotides on both sides are ligated into the pAC99 dual reporter plasmid, as previously described (Premature stop codons involved in muscular dystrophies show a broad spectrum of readthrough efficiencies in response to gentamicin treatment, Bidou et al, Gene Therapy 1 Apr. 2004, 11(7):619-627). This dual reporter is used to quantify stop-codon readthrough through the measurement of luciferase and beta-galactosidase (internal calibration) activities, as previously described (Stahl et al, Versatile vectors to study recoding: conservation of rules between yeast and mammalian cells. Nucleic Acids Res 1995; 23:1557-60). Readthrough levels for nonsense mutations were analysed in the presence or absence of tested molecules. Cells were seeded in a 6-well plate. The next day, cells are transfected with the reporter plasmid in the presence of JetPei reagent (Invitrogen). The following day, they are rinsed with fresh medium, with or without readthrough inducers. […] Readthrough efficiency was estimated by calculating the ratio of luciferase activity to beta-galactosidase activity obtained with the test construct, with normalisation against an in-frame control construct. […]"}, "[3]": {"tested_on": "TP53 nonsense mutation R213X", "experiment": "Secreted Metridia luciferase R213X reporter in stable NIH3T3 cell line (HTS)", "format": "cell-based, mouse", "conditions": "gentamicin 1.6 mM 24 hours, 7 clones, library molecules 50 μM", "method": "All cells were cultured in DMEM plus GlutaMAX (Invitrogen), except for H1299 cells, which were cultured in RPMI plus GlutaMAX (Invitrogen). The medium was supplemented with 10% foetal calf serum (FCS, Invitrogen) and 100 U/ml penicillin/streptomycin. Cells were kept in a humidified atmosphere containing 5.5% CO2, at 37° C. NIH3T3 cells are embryonic mouse fibroblasts. H1299 is a p53-null cell line established from a human lung carcinoma (provided by the ATCC). HDQ-P1 is homozygous for a nonsense mutation at codon 213 (CGA to TGA) in the p53 gene. This cell line was established from a human primary breast carcinoma and was provided by DSMZ-German collection of microorganisms and cell cultures. In order to generate a stable mammalian cell line the inventors used a secreted Metridia luciferase reporter gene derived from pMetLuc2 (Clonetech). […] Seven neomycin resistant clones were tested for their capacity to express active metridiae after readthrough induction in the presence of 1.6 mM gentamicin during 24 hours. Then 50 μL of culture medium was taken from each well and incubated in the presence of substrate: coelenterazine, according to the conditions recommended by the supplier (Ready-To-Glow Secreted Luciferase Reporter Assay (Clonetech)). The photon emission generated by the reaction was measured in a plate luminometer (Tecan). […]"}, "dystrophin": {"tested_on": "dystrophin", "conditions": "skeletal muscle of mdx mice, subcutaneous injections (Barton-Davis et al, 1999); cited from earlier work"}}, "data": [{"molecule": "Cc1nc(NC(=N)N)nc2cc(F)ccc12", "note": "[EC-11]", "values": [{"measurement": "IC50", "setting": "HeLa cells", "value": 40, "unit": "µM"}, {"measurement": "Inducting factor of readthrough as compared to untreated cells (measured on nonsense mutation W1268X)", "setting": "nonsense mutation W1268X", "value": 11}]}, {"molecule": "COc1ccc2c(C)nc(NC(=N)N)nc2c1", "note": "[EC-18, 1-(7-methoxy-4-methylquinazolin-2-yl)guanidine]", "values": [{"measurement": "IC50", "setting": "HeLa cells", "value": 60, "unit": "µM"}, {"measurement": "Inducting factor of readthrough as compared to untreated cells (measured on nonsense mutation W1268X)", "setting": "nonsense mutation W1268X", "value": 69}, {"measurement": "Inducting factor of readthrough as compared to untreated cells (measured on nonsense mutation R213X)", "setting": "nonsense mutation R213X", "value": 50}]}, {"molecule": "COc1cccc2c(C)nc(NC(=N)N)nc12", "note": "[EC-30]", "values": [{"measurement": "IC50", "setting": "HeLa cells", "value": 80, "unit": "µM"}, {"measurement": "Inducting factor of readthrough as compared to untreated cells (measured on nonsense mutation W1268X)", "setting": "nonsense mutation W1268X", "value": 10}]}, {"molecule": "Cc1nc(NC(=N)N)nc2c(C)cccc12", "note": "[EC-35, 1-(4,8-dimethylquinazolin-2-yl)guanidine]", "values": [{"measurement": "IC50", "setting": "HeLa cells", "value": 20, "unit": "µM"}, {"measurement": "Inducting factor of readthrough as compared to untreated cells (measured on nonsense mutation W1268X)", "setting": "nonsense mutation W1268X", "value": 11}, {"measurement": "Inducting factor of readthrough as compared to untreated cells (measured on nonsense mutation R213X)", "setting": "nonsense mutation R213X", "value": 14}]}, {"molecule": "Cc1nc(NC(=N)N)nc2cc(Br)ccc12", "note": "[EC-85]", "values": [{"measurement": "IC50", "setting": "HeLa cells", "value": 20, "unit": "µM"}, {"measurement": "Inducting factor of readthrough as compared to untreated cells (measured on nonsense mutation W1268X)", "setting": "nonsense mutation W1268X", "value": 15}, {"measurement": "Inducting factor of readthrough as compared to untreated cells (measured on nonsense mutation R213X)", "setting": "nonsense mutation R213X", "value": 16}]}, {"molecule": "Cc1nc(NC(=N)N)nc2c(C)c(Br)ccc12", "note": "[EC-130, 1-(7-bromo-4,8-dimethylquinazolin-2-yl)guanidine]", "values": [{"measurement": "IC50", "setting": "HeLa cells", "value": 10, "unit": "µM"}, {"measurement": "Inducting factor of readthrough as compared to untreated cells (measured on nonsense mutation W1268X)", "setting": "nonsense mutation W1268X", "value": 21}, {"measurement": "Inducting factor of readthrough as compared to untreated cells (measured on nonsense mutation R213X)", "setting": "nonsense mutation R213X", "value": 33}]}, {"molecule": "Cc1nc(NC(=N)N)nc2cc(Cl)ccc12", "note": "[EC-141]", "values": [{"measurement": "IC50", "setting": "HeLa cells", "value": 40, "unit": "µM"}, {"measurement": "Inducting factor of readthrough as compared to untreated cells (measured on nonsense mutation W1268X)", "setting": "nonsense mutation W1268X", "value": 16}]}, {"molecule": "CCc1nc(NC(=N)N)nc2cc(OC)ccc12", "note": "[EC-265]", "values": [{"measurement": "IC50", "setting": "HeLa cells", "value": 60, "unit": "µM"}, {"measurement": "Inducting factor of readthrough as compared to untreated cells (measured on nonsense mutation W1268X)", "setting": "nonsense mutation W1268X", "value": 19}, {"measurement": "Inducting factor of readthrough as compared to untreated cells (measured on nonsense mutation R213X)", "setting": "nonsense mutation R213X", "value": 40}]}, {"molecule": "Cc1nc(NC(=N)N)nc2c(C)c(F)ccc12", "note": "[EC-288, 1-(7-fluoro-4,8-dimethylquinazolin-2-yl)guanidine]", "values": [{"measurement": "IC50", "setting": "HeLa cells", "value": 20, "unit": "µM"}, {"measurement": "Inducting factor of readthrough as compared to untreated cells (measured on nonsense mutation W1268X)", "setting": "nonsense mutation W1268X", "value": 68}, {"measurement": "Inducting factor of readthrough as compared to untreated cells (measured on nonsense mutation R213X)", "setting": "nonsense mutation R213X", "value": 55}]}, {"molecule": "Cc1nc(NC(=N)N)nc2c(C)c(Cl)ccc12", "note": "[EC-335, 1-(7-chloro-4,8-dimethylquinazolin-2-yl)guanidine]", "values": [{"measurement": "IC50", "setting": "HeLa cells", "value": 10, "unit": "µM"}, {"measurement": "Inducting factor of readthrough as compared to untreated cells (measured on nonsense mutation W1268X)", "setting": "nonsense mutation W1268X", "value": 33}, {"measurement": "Inducting factor of readthrough as compared to untreated cells (measured on nonsense mutation R213X)", "setting": "nonsense mutation R213X", "value": 38}]}, {"molecule": "COc1cc(C(=O)OCCCN2CCCN(CCCOC(=O)c3cc(OC)c(OC)c(OC)c3)CC2)cc(OC)c1OC.Cl.Cl", "note": "[TLN236]", "values": [{"measurement": "production of the full-length p53 (western blot)", "setting": "[1]", "value": "no protein is revealed"}]}, {"molecule": "CCN(CC)Cc1cc(Nc2ccnc3cc(Cl)ccc23)ccc1O", "note": "[TLN309, Amodiaquine]", "values": [{"measurement": "level of induction of full-length p53 compared with G418", "setting": "[1]; G418 10 and 20 mM", "value": "even higher to the one obtained in presence of G418"}, {"measurement": "production of the full-length p53 (western blot)", "setting": "[1]", "value": "stimulate the production of the full-length p53"}, {"measurement": "stabilisation of TP53-R213X mRNA relative to untreated", "setting": "TP53-R213X mRNA", "value": "marginal stabilisation"}]}, {"molecule": "gentamicin", "values": [{"measurement": "readthrough level", "setting": "[2]", "value": 10, "unit": "%"}, {"measurement": "induction of Metridia luciferase activity", "setting": "[3]", "value": "significant induction"}, {"measurement": "restoration of dystrophin levels relative to wild-type animals", "setting": "dystrophin", "value": "10-20%"}]}]}
